Reference: US3992371A, “Penicillins substituted with heterocyclic and substituted phenyl groups” (Sumitomo Chemical Company, Limited, priority 1973, dated 1976)

Tests used:
[1] = tested on: Pseudomonas; conditions: background statement; cited from earlier work
[2] = tested on: gram-positive and gram-negative bacteria; conditions: background statement; cited from earlier work
[3] = tested on: Pseudomonas aeruginosa 104; assay: Minimal inhibitory concentration, agar dilution method; assay type: cell-based
Description: When determined according to the agar dilution method, the penicillins (I) afford the minimal inhibitory concentrations against test microorganisms as shown in Table 2.

Structure (SMILES)	antimicrobial activity against Pseudomonas [1]	inhibition of the growth of gram-positive and gram-negative bacteria [2]	MIC [3]
CC1(C)S[C@@H]2C(NC(=O)C(N)c3ccc(O)cc3)C(=O)N2[C@H]1C(=O)O (stereo partly drawn) [Amoxycillin, 6-(α-amino-p-hydroxyphenylacetamido)penicillanic acid]	do not exert any appreciable antimicrobial activity against Pseudomonas	inhibit the growth of various gram-positive and gram-negative bacteria	
CC1(C)S[C@@H]2[C@H](NC(=O)C3(N)CCCCC3)C(=O)N2[C@H]1C(=O)O [Cyclacillin, 6-(1-amino-cyclohexanecarboxamide)penicillanic acid]	do not exert any appreciable antimicrobial activity against Pseudomonas	inhibit the growth of various gram-positive and gram-negative bacteria	
CC1(C)S[C@@H]2C(NC(=O)C(N)c3ccccc3)C(=O)N2[C@H]1C(=O)O (stereo partly drawn) [Ampicillin, 6-(α-amino-phenylacetamido)penicillanic acid]	do not exert any appreciable antimicrobial activity against Pseudomonas	inhibit the growth of various gram-positive and gram-negative bacteria	> 500 µg/mL
